Here are results for four compounds from patent US8957057B2 (priority 2009, dated 2015).

The subject of data set [1] is Prostate specific antigen (PSA) secretion in LNCap.FGC cells. In words: cells. To be noted: for PSA concentration: 48 hours. The source says:
Prostate specific antigen (PSA) is a protein secreted by the […] cells of prostate. PSA facilitates semen liquification and presents in male serum in minute amount. In the serum of male subjects suffering from prostate cancer, benign prostatic hyperplasia or prostatic infection, the quantity of PSA presented in serum may increase. Therefore, PSA is so far the most valuable marker in screening and diagnosing prostate tumors. PSA also plays an important role in determining a cancer's stage of development and evaluating the effect of treatment. The amounts of PSA were determined by using Prostate Specific Antigen ELISA kit (Cat. No. BQ067T, Bio Quant, USA). […] 50 μl of each of the retrieved culture media and 50 μl of each of the standard PSA of 0, 2, 4, 8, 25, and 50 ng/ml were added to the wells of a 96-well plate, respectively. Then, 50 μl assay buffer was further added to the wells, and the plate was incubated at room temperature in the dark for 30 minutes. The supernatant was removed and the wells were washed three times with 300 μl wash buffer. […] The supernatant was removed and the wells and washed three times with 300 μl wash buffer. […] Within 15 minutes after completion of the previous step, the wells were examined by a ELISA Reader at 450 nm.

In the next data set the target is androgen receptor (Homo sapiens, UniProt P10275). The data set is described as follows: cell-based. The data set is classed as cell-based.
A further data set has as its system LNCap.FGC cells. The settings on record: MTT, 72 hours, up to 20 μM. Here is the method:
(§1) The survive rate of cell was determined by the MTT (3-(4,5-dimethyl-2-thiazolyl)-2,5-diphenyl tetrazolium bromide) method.
(§2) The supernatant of the culture was removed.

Data set [2] has as its system MRC-5, MCF-7, HepG2, AGS, HeLa, HEK 293 cells. The settings on record: MTT, 72 hours, up to 20 μM. Here is the method: as §1, §2

Values joined by “and” are separate entries in the source; they are usually repeats but may differ in a detail not shown here. Equal entries are not always repeated.

Chain of androgen receptor (P10275 whole entry, looked up): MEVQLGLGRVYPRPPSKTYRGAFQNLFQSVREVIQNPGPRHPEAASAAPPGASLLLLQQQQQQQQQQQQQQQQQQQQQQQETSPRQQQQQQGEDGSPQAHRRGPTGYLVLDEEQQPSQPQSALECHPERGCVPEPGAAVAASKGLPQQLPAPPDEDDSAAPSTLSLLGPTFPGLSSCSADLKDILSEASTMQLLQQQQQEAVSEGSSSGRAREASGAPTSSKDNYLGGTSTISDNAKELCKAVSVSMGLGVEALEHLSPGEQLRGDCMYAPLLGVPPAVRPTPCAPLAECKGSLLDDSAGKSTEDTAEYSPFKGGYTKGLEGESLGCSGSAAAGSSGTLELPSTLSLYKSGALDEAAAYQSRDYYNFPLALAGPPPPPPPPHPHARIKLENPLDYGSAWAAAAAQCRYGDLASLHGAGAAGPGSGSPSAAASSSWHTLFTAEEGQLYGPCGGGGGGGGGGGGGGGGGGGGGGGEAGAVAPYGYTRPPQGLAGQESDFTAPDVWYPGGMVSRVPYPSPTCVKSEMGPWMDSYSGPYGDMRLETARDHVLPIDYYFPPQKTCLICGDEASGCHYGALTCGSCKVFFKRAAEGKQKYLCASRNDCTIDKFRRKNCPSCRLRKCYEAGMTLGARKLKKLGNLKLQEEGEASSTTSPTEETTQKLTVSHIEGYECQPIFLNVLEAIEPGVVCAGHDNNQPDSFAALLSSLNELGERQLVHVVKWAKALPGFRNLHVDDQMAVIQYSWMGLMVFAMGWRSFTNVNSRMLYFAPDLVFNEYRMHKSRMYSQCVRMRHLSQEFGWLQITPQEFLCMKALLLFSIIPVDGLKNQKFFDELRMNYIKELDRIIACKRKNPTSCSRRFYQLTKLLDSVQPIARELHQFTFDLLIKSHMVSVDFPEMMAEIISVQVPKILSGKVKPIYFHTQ
Experimental for androgen receptor: Human MDA-MB-453 cells were used in this assay. The cells in the exponential phase of growth (cultured in RPMI 1640 medium (Gibco, USA), 10% FBS) were washed off with 1 ml of 0.05% trypsin, centrifuged and collected in a centrifuge tube. 1×10^7 cells were resuspended in 270 μl BES medium (5 mM BES in RPMI 1640 medium) and 8 to 10 μg of pPSA-SEAP2 plasmid (see FIG. 4) were also added to the medium.
25 μl of media were retrieved from each cell of the 96-well plate and heated in a 65° C. water bath for 30 minutes. The media were then treated by Phospha-Light™ assay system (Applied Biosystem) in order to detect the secreted alkaline phosphatase (SEAP) reporter protein. The intensity of luminescence was detected by Victor™ Light luminescence counter to determine the activity of the samples in the modulation of the androgen receptor.
Human MDA-MB-453 cells were used in this assay. The cells in the exponential phase of growth (cultured in RPMI 1640 medium (Gibco), 10% FBS) were washed off with 1 ml of 0.05% trypsin, centrifuged and collected in a centrifuge tube. 1×10^7 cells were resuspended in 270 μl BES medium (5 mM BES in RPMI 1640 medium) and 8 to 10 μg of pPSA-SEAP2 plasmid (see FIG. 4) were also added to the medium.

In the case of `C[C@]12CCC(=O)C[C@@H]1CC[C@@H]1[C@@H]2CC[C@]2(C)[C@@H](O)CC[C@@H]12` [DHT, 5α-dihydrotestosterone, reference compound], the PSA concentration in data set [1] (DHT 5 nM alone) came to 12.61 ng/mL.

As to `C/C=C/C1=CC2=C(CO1)C(=O)[C@]1(C)OC(=O)[C@H](C(=O)CCCCCCC)[C@H]1C2` [ankaflavin], the inhibition at 26 µM at androgen receptor (MDA-MB-453, read-out: inhibition of the reporter activity) amounted to 41%.

For `C/C=C/C1=CC2=C(CO1)C(=O)[C@]1(C)OC(=O)[C@H]([C@@H](O)CCCCC)[C@H]1C2` [monascuspiloin, (3S,3aR,9aR)-3a,4-dihydro-3-((S)-1-hydroxyhexyl)-9a-methyl-6-((E)-prop-1-enyl)-3H-furo [3,2-g]isochromene-2,9(8H,9aH)-dione], the IC50 on androgen receptor (read-out: IC50 for inhibition of the activation of the androgen receptor) is ~12 µM and 12 µM. Further, in the data set with LNCap.FGC cells, the “cytotoxic effect on LNCap.FGC” value was “does not have a significant cytotoxic effect”. In data set [2], the “cytotoxic effect on the other 6 non-human-prostate-cancer cell lines” value is “does not have a significant cytotoxic effect”. Further, the PSA concentration is 10.27 ng/mL in data set [1] (DHT 5 nM + Monascuspiloin 5 μM), 9.71 ng/mL in data set [1] (DHT 5 nM + Monascuspiloin 10 μM) and 8.77 ng/mL in data set [1] (DHT 5 nM + Monascuspiloin 25 μM). For the same compound, the inhibition at 20 µM in data set [1] (Homo sapiens, read-out: inhibition of the production of PSA induced by DHT) turned out to be 43%.

As for `C/C=C/C1=CC2=C(CO1)C(=O)[C@]1(C)OC(=O)[C@H](C(=O)CCCCC)[C@H]1C2` [monascin], at androgen receptor, the “inhibition of the reporter activity” value was found to be 55%.

For orientation: inhibition means the relative decrease from the control value, in per cent. What is called IC50 is the midpoint of a concentration-inhibition curve.
